One block for each compound: values may come before it.
What was measured:
B16F10 melanoma = B16F10 melanoma with pmel-1 donor splenocytes (adoptive T cell therapy): tumor size and tumor flow cytometry; assay type: in vivo, C57BL/6 mice
Excerpt: For the study, 0.2×10^6 B16F10 melanoma cells/mouse were implanted on day −8 on flanks of C57BL/6 female mice. On day 0, when tumor size had reached about 80 mm3, mice were randomized into 3 groups with an n=12/group. All mice in the three groups were subjected to whole body irradiation with 5.0 Gy for lymphodepletion. […] gp100 specific donor splenocytes were harvested from C57BL/6 pmel-1 donor mice (The Jackson Laboratory, world wide web.jax.org/strain/005023). Briefly, splenocytes comprising immune cells such as T cells from spleens of 18 pmel-1 female C57BL/6 mice (Jackson labs) were harvested yielding˜90 Million splenocytes. The pmel-1 splenocytes were isolated, the red blood cells lysed, and the remaining splenocytes expanded and activated with IL-2 and gp100 antigen for 4 days in vitro, and administered to the B16 melanoma bearing mice by i.v. On day 7, mice were sacrificed, and tumor, spleen, and blood samples were collected. Tumor size of all three treatment groups were measured on days 0, 2, 5 and 7 (FIGS. 6 and 7). […] After mice were sacrificed, tumor samples were tested for the fraction of several live immune cells (CD45+ cells) in the tumor. Briefly, tumors were harvested, and samples digested with tumor digestion mix and cells collected and washed in FACS buffer. A sample of cells was stained with a live/dead stain (ef780) to test for live cells and enumerated by flow cytometry. […] When staining for intracellular markers, cells were fixed and permeabilized before staining with markers (ki67). For example, cells were stained with markers for MDSC and F4/80 macrophages and enumerated by flow cytometry. […] Samples were also analyzed for the percentage of gp100+, CD8+ T cells actively proliferating (ki67+ cells) that were present in the tumor.

IFN-γ secretion = assay: IFN-γ ELISA / ELISpot of splenocytes from B16F10 tumor bearing mice given donor T cells; assay type: in vivo, C57BL/6 mice
Excerpt: This example describes the in vitro activation and expansion of donor C57BL/6 pmel-1 splenocytes by INF-γ ELISA and INF-γ Elispot analysis of splenocytes derived from B16F10 melanoma syngeneic tumor model inoculated with Pmel-1 donor splenocytes (T-cells). Briefly, spleens and splenocytes from C57BL-B16F10 tumor bearing mice treated with or without an ENPP1 inhibitor and donor T cells are harvested and purified as described in Example 8. To test for cytokine secretion, the isolated splenocytes are then plated and co-cultured with gp100 peptide on a plate of an ELISpot kit and IFN-γ secretion is detected. The number of spots is counted for each well and summarized for each group. Additionally, or alternatively, IFN-γ secretion is detected with a IFN-γ ELISA test.

4T1-luciferase tumor = 4T1-luciferase tumor model: IR with compound 1, cGAMP and/or anti-CTLA-4; tumor volume and survival; assay type: in vivo, Balb/c mice; conditions: 20 Gy IR + 10 μg cGAMP intratumoral alone
4T1 tumor model = assay: Tumor-associated dendritic cells in mouse 4T1 tumor model with or without IR (FACS); assay type: in vivo, Balb/c mice; conditions: intratumoral 100 μL of 1 mM
Method: Anaesthetized animals were shielded with a 3.2 mm lead shield with a 15×20 mm aperture where the tumor was placed. […] On the next day, the tumor was extracted and incubated in RPMI+10% FBS with 20 μg/mL DNase I type IV (Sigma-Aldrich) and 1 mg/mL Collagenase from Clostridium histolyticum (Sigma-Aldrich) at 37° C. for 30 min. […] Cells were stained with Live/Dead fixable near-IR dead cell staining kit (Thermo Fisher Scientific), Fc-blocked for 10 min using TruStain fcX and subsequently antibody-stained with CD11c, CD45, and I-A/I-E (all Biolegend). Cells were analyzed using an SH800S cell sorter (Sony) or an LSR II (BD Biosciences).

[1] = target: T1, purified recombinant mouse ENPP1 (Mus musculus, UniProt P06802); assay: ENPP1 activity assay using TMP-pNP as a substrate; assay type: biochemical; conditions: TMP-pNP 2 μM, mouse ENPP1 0.5 nM, pH 7.5
T1 sequence (P06802 1-906): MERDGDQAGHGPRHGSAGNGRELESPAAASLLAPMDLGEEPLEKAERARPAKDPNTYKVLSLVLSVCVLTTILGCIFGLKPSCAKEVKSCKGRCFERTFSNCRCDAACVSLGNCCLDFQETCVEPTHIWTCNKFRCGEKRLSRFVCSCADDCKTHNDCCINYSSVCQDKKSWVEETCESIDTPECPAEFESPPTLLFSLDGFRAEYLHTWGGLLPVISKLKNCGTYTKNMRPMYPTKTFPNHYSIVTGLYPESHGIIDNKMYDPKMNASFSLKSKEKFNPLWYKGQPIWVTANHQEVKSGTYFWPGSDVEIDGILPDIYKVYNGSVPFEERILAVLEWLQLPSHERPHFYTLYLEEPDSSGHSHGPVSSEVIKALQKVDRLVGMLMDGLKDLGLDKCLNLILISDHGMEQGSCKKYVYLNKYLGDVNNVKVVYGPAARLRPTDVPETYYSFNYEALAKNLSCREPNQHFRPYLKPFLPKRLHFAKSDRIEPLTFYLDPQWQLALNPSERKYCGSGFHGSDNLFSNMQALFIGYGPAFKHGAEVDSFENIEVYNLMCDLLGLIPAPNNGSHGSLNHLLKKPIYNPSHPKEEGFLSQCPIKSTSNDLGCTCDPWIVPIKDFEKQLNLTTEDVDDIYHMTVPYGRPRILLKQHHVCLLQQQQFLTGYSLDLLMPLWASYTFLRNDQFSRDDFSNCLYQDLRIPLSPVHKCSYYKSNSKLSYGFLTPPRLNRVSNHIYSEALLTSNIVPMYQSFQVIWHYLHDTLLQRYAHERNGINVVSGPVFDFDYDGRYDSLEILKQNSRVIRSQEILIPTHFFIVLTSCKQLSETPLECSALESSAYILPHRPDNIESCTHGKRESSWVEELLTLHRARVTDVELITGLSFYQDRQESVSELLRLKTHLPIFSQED
Method: Selected compounds of Table 1, Table 2, Table 3, Table 4, Table 5, or Table 6 and other derivatives were prepared and assessed in an ENPP1 activity assay using thymidine monophosphate paranitrophenol (TMP-pNP) as a substrate. Enzyme reactions were prepared with TMP-pNP (2 μM), 5-fold dilutions of ENPP1 inhibitor, and purified recombinant mouse ENPP1 (0.5 nM) in 100 mM Tris, 150 mM NaCl, 2 mM CaCl2, 200 μM ZnCl2, pH 7.5 at room temperature. Reaction progress was monitored by measuring absorbance at 400 nm of paranitrophenolate produced by the reaction for 20 minutes.

[2] = 50 mg/kg plus donor splenocytes

Method for CD14+ IFNB1 expression: Primary human peripheral blood mononucleocyte cells (PBMCs) were isolated by subjecting enriched buffy coat from whole blood to a Percoll density gradient. CD14^+ monocytes were isolated using CD14^+ MicroBeads (Miltenyi). CD14^+ monocyctes were cultured in RPMI supplemented with 2% human serum and 100 U/mL penicillin-streptomycin. […] 24-26 hours following supernatant transfer, total RNA was extracted using Trizol (Thermo Fisher Scientific) and reverse transcribed with Maxima H Minus Reverse Transcriptase (Thermo Fisher Scientific). Real-time RT-PCR was performed in duplicate with AccuPower 2×Greenstar qPCR Master Mix (Bioneer) on a 7900HT Fast Real-Time PCR System (Applied Biosystems). Data were normalized to CD14 expression for each sample. Fold induction was calculated using ΔΔCt.
Supernatant from these cells was transferred to primary CD14^+ human PBMCs. IFNB1 mRNA levels were normalized to CD14 and the fold induction was calculated relative to untreated CD14^+ cells.

SMILES: COc1cccc2c(N3CCC(CCP(=O)(O)O)CC3)ncnc12 [Compound 76]
- tumor size at day 7 compared to PBS with donor cells (B16F10 melanoma; 5 mg/kg and donor T cells): smaller reduction in tumor size
- percentage of F4/80+ macrophages in tumors compared to PBS with donor T cells (B16F10 melanoma; 5 mg/kg plus donor T cells): higher
- percentage of MDSC macrophages in tumors compared to PBS with donor T cells (B16F10 melanoma; 5 mg/kg plus donor T cells): lower
- percentage of live cells in tumors compared to PBS with donor T cells (B16F10 melanoma; 5 mg/kg plus donor T cells): higher
- percentage of Thy1.1+ (pmel-1 derived), gp100+, CD8+ donor T cells in tumors compared to PBS with donor splenocytes (B16F10 melanoma; 5 mg/kg plus donor splenocytes): higher
- percentage of Thy1.2+ host cells in tumors (B16F10 melanoma; 5 mg/kg plus donor splenocytes): declined reciprocally
- percentage of gp100+, CD8+, ki67+ T cells in tumors compared to PBS with donor splenocytes (B16F10 melanoma; 5 mg/kg plus donor splenocytes): higher
- tumor size at day 7 compared to PBS with donor cells (B16F10 melanoma; 50 mg/kg and donor T cells): marked reduction in tumor size
- percentage of F4/80+ macrophages in tumors compared to PBS with donor T cells (B16F10 melanoma; 50 mg/kg plus donor T cells): higher
- percentage of MDSC macrophages in tumors compared to PBS with donor T cells (B16F10 melanoma; 50 mg/kg plus donor T cells): lower
- percentage of live cells in tumors compared to PBS with donor T cells (B16F10 melanoma; 50 mg/kg plus donor T cells): higher
- percentage of Thy1.1+ (pmel-1 derived), gp100+, CD8+ donor T cells in tumors compared to PBS with donor splenocytes (B16F10 melanoma; [2]): higher
- percentage of Thy1.2+ host cells in tumors (B16F10 melanoma; [2]): declined reciprocally
- percentage of gp100+, CD8+, ki67+ T cells in tumors compared to PBS with donor splenocytes (B16F10 melanoma; [2]): higher
- IFN-γ secretion compared to PBS with donor T cells (IFN-γ secretion; 5 mg/kg plus donor T cells): elevated
- IFN-γ secretion compared to PBS with donor T cells (IFN-γ secretion; 50 mg/kg plus donor T cells): elevated

SMILES: Nc1nc2c(ncn2[C@@H]2O[C@@H]3COP(=O)(O)O[C@H]4[C@@H](O)[C@H](n5cnc6c(N)ncnc65)O[C@@H]4COP(=O)(O)O[C@@H]2[C@@H]3O)c(=O)[nH]1 [cGAMP, cyclic guanosine monophosphate-adenosine monophosphate]
- effect over IR treatment (tumor) (4T1-luciferase tumor): no effect

SMILES: COc1cc2ncnc(N3CCC(CCP(=O)(O)O)CC3)c2cc1OC [compound 1]
- extracellular cGAMP levels (CD14+ IFNB1 expression; 293T cGAS ENPP1low cells transiently overexpressing ENPP1): rescued
- CD14+ IFNB1 expression (CD14+ IFNB1 expression; supernatant of ENPP1-overexpressing 293T cGAS ENPP1low cells transferred to CD14+ monocytes): induced
- tumor-associated leukocyte compositions compared to the PBS control (4T1 tumor model; no IR): did not change
- tumor associated CD11c+ population (4T1 tumor model; tumors pretreated with 20 Gy IR): increased

- IC50 [1]: 0.005 to 0.05 µM
SMILES: O=P(O)(O)CCC1CCN(c2ncnc3ccccc23)CC1 [compound 25]

Source: patent US20240374724A1, “ENPP1 INHIBITORS AND IMMUNE CELLS EXPRESSING CHIMERIC ANTIGEN RECEPTORS” (Angarus Therapeutics, Inc., priority 2021, published 2024)
